Results: publication PMC3652196, “Pharmacometrics of 3-Methoxypterostilbene: A Component of Traditional Chinese Medicinal Plants” (Evidence-based Complementary and Alternative Medicine : eCAM, 2013)
Several values for one entry are separate records, joined by “and”; a condition that tells them apart may be missing. Identical values can stand only once. Like-named read-outs stand apart in the source and are kept apart here.

Assays:
[1] = Antioxidant capacity (inhibition of oxidation of ABTS to ABTS radical cation by metmyoglobin, Cayman kit); assay type: biochemical; settings: for Antioxidant capacity (Trolox equivalents): n = 4, mean ± SEM
Description: The amount of ABTS^∙+ can be monitored spectrophotometrically. The degree of suppression of absorbance caused by the compound of interest is proportional to the concentration of […], which is expressed as Trolox equivalents (μg/mL). […] No additional dilution was employed. To run the assay, 10 μL of sample was combined with 10 μL metmyoglobin and 150 μL chromogen. Then, 40 μL of hydrogen peroxide working solution was added within 1 min to all the samples. The plate was covered and incubated on a shaker for 5 min at room temperature […]), and the absorbance was measured at 750 nm using the Synergy HT multiwell plate reader and Gen5 data analysis software (Biotek Instruments Inc., Winooski, VT, USA). The assay was performed in quadruplet. For more information regarding the assay protocol, please refer to the instructions for the kit (Antioxidant Assay Kit from Cayman Chemical—Cat. no. 709091).

[2] = Pharmacokinetic study in cannulated male Sprague-Dawley rats (serum and urine, HPLC); assay type: in vivo, rat; settings: for CL renal: serum and urine; for AUC: n = 4 (abstract); for bioavailability: read-out: Bioavailability (F%); for AUC(0-inf): n = 4; for Cumulative amount excreted in urine: over 72 h; for CLhepatic: CLtotal − CLrenal
Excerpt: The HPLC system used was a Shimadzu HPLC (Kyoto, Japan), consisting of two LC-10A pumps, a SIL-10AF autoinjector, a SPD-M10A photodiode array detector, and a SCL-10A system controller. Data collection and integration were achieved using Shimadzu EZ Start Class VP (version 7.4) software. A Phenomenex Luna C18(2) (5 μm, 250 × 4.60 mm) column was used. The mobile phase consisted of acetonitrile and water (62 : 38 v/v) that were filtered and degassed under reduced pressure prior to use. Pinosylvin was used as the internal standard. […] Ultraviolet detection was carried out at 327 nm. […] The bias of the assay was <15% and was within 13% at the LOQ [9].
Male Sprague-Dawley rats (≈200 g) were obtained from Simonsen Laboratories (Gilroy, CA, USA) and allowed food (Purina Rat Chow 5001) and water ad libitum upon arrival to the vivarium. Rats were housed in a temperature- and humidity-controlled facility with a 12 h light/dark cycle. Prior to the first day of the pharmacokinetic experiment, the rats were anesthetized using isoflurane (IsoFlo, Abbott Laboratories, Abbot Park, IL, USA) coupled with an oxygen regulator, and monitored by pedal reflex and respiration rate to maintain a surgical plane of anesthesia. The right jugular veins of the rats were cannulated with sterile silastic cannulas (Dow Corning, Midland, MI, USA). After cannulation, Intramedic PE-50 polyethylene tubing (Becton, Dickinson and Company, Franklin Lakes, NJ, USA) was exposed through the dorsal skin. The cannulas were flushed with nonheparinized 0.9% sterile saline solution. The animals were placed in metabolic cages to recover and fasted overnight.
No pharmacokinetics studies are reported in the literature for 3-methoxypterostilbene. Despite the paucity of 3-methoxypterostilbene pharmacokinetic studies in the literature, studies on other stilbenes have reported intravenous (IV) dosage ranges from 10 to 20 mg/kg and from 50 to 300 mg//kg for oral (PO) dosage. In keeping with the literature, doses of 10 mg/kg IV and 100 mg/kg PO were chosen.
Male Sprague-Dawley rats (n = 8, average weight 200 g) were cannulated as described in the Animals and Surgical Procedures section. The animals were placed in metabolic cages following surgery where they were recovered overnight and fasted for 12 h prior to dosing. On the day of the experiment, the animals were dosed with 3-methoxypterostilbene in PEG 400 either IV (10 mg/kg, n = 4) or PO (100 mg/kg, n = 4). After dosing, a series of whole blood samples (0.5 mL) were collected at 0, 1, and 15 min, and 0.5, 1, 2, 4, 6, 12, 24, 48, and 72 h and 0, 0.25, 0.5, 1, 2, 4, 6, 12, 24, 48, and 72 h for IV and PO dosed rats, respectively. The cannulas were flushed with 0.5 mL 0.9% nonheparinized saline solution after each sample collection. The samples were collected into regular 2.0 mL Eppendorf tubes, centrifuged at 10,000 rpm for 5 min (Beckman Microfuge centrifuge, Beckman Coulter Inc., Fullerton, CA, USA), and the serum was collected. The serum was divided into two 0.1 mL fractions and placed into regular 2.0 mL Eppendorf tubes labeled as free and total serum samples. Samples were stored at −20°C until analyzed. Urine samples were also collected at 0, 2, 6, 12, 24, 48, and 72 h following 3-methoxypterostilbene administration. The volumes of urine produced by the rats were recorded, and two 0.1 mL aliquots were collected into separate prelabeled regular polypropylene microcentrifuge tubes and labeled as free and total urine samples and stored at −20°C until analyzed. At 72 h after dose, the animals were euthanized exsanguinated, and serum was collected.
Serum and urine samples (0.1 mL) were run in duplicate with or without the addition of 20 μL of 500 U/mL β-glucuronidase and incubated in a shaking water bath at 37°C for 2 h to liberate any glucuronide conjugates. The proteins present in the serum samples were precipitated using 1 mL of −20°C acetonitrile. […]

[3] = tested on: α-glucosidase from Saccharomyces cerevisiae; test: α-Glucosidase inhibition colorimetric assay (PNPG); assay type: biochemical; settings: 0 to 200 μg/mL, n = 6
[4] = rat, intravenous 10 mg/kg, mean ± SEM
[5] = rat, oral 100 mg/kg, mean ± SEM
[6] = rat, oral 100 mg/kg, mean ± SEM, 100 mg/kg

COc1cc(/C=C/c2ccc(O)c(OC)c2)cc(OC)c1 [3-methoxypterostilbene, trans-3,3′-5-trimethoxy-4′-hydro-xystilbene]
Antioxidant activity (in words) ([1]; 1-100 μg/mL): modest concentration-dependent antioxidant activity
Antioxidant capacity (Trolox equivalents) ([1]; at 1 μg/mL in DMSO): 98.6 ± 13.7 μg/mL and 0.394 ± 0.0546 mM
Antioxidant capacity (Trolox equivalents) ([1]; at 100 μg/mL in DMSO): 174 ± 2.70 μg/mL and 0.695 ± 0.0094 mM
CL renal ([2]; male, Sprague-Dawley, rat, intravenous 10 mg/kg, mean ± SEM): 12.7 mL/min/kg
CL renal ([2]; male, Sprague-Dawley, rat, oral 100 mg/kg, mean ± SEM): 0.167 mL/min/kg
AUC ([2]; male, Sprague-Dawley, serum, rat, IV 10 mg/kg, mean ± SEM): 48.1 ± 23.8 µg·h/mL
concentration at 24 h ([2]; male, Sprague-Dawley, serum, rat, IV 10 mg/kg, below detectable concentrations, read-out: Serum concentration after 24 hours): < 50 ng/mL
AUC ([2]; male, Sprague-Dawley, serum, rat, PO 100 mg/kg, mean ± SEM): 229 ± 44.6 µg·h/mL
MRT ([2]; male, Sprague-Dawley, serum, rat, intravenous 10 mg/kg, mean ± SEM): 26 ± 15 h
clearance ([2]; male, Sprague-Dawley, serum, rat, intravenous 10 mg/kg, mean ± SEM, read-out: CLtotal (converted)): 797 mL/min/kg
half-life ([2]; male, Sprague-Dawley, serum, rat, intravenous 10 mg/kg, mean ± SEM, read-out: t 1/2 serum (converted)): 18.9 ± 10.9 h
bioavailability ([2]; male, Sprague-Dawley, serum, rat, intravenous 10 mg/kg): 100%
bioavailability ([2]; male, Sprague-Dawley, serum, rat, oral 100 mg/kg vs 10 mg/kg IV, mean ± SEM): 50.6 ± 10%
MRT ([2]; male, Sprague-Dawley, serum, rat, oral 100 mg/kg, mean ± SEM): 105 ± 13.1 h
half-life ([2]; male, Sprague-Dawley, serum, rat, oral 100 mg/kg, mean ± SEM, read-out: t 1/2 serum (converted)): 73.3 ± 8.91 h
half-life ([2]; male, Sprague-Dawley, urine, rat, intravenous 10 mg/kg, mean ± SEM, read-out: t 1/2 urine (converted)): 9.54 ± 1.51 h
half-life ([2]; male, Sprague-Dawley, urine, rat, oral 100 mg/kg, mean ± SEM, read-out: t 1/2 urine (converted)): 20.6 ± 3.01 h
Tmax ([2]; male, Sprague-Dawley, rat serum, PO 100 mg/kg, average): 0.5 h
AUC(0-inf) ([2]; male, Sprague-Dawley, rat serum, intravenous 10 mg/kg, mean ± SEM): 48.1 ± 23.8 µg·h/mL
AUC(0-inf) ([2]; male, Sprague-Dawley, rat serum, oral 100 mg/kg, mean ± SEM): 229 ± 44.6 µg·h/mL
Cumulative amount excreted in urine ([2]; rat, IV 10 mg/kg (~2 mg per rat)): ~ 98 μg
Cumulative amount excreted in urine ([2]; rat, PO 100 mg/kg (20 mg per rat)): 341 µg
f e (fraction excreted in urine unchanged) [2, 4]: 1.64 ± 0.950%
Vdβ ([2]; rat, intravenous 10 mg/kg, mean ± SEM, 10 mg/kg): 5.11 ± 0.38 L/kg and 5.11 ± 0.380 L/kg
CLhepatic [2, 4]: 785 ± 388 mL/min/kg
CLtotal [2, 5]: 8 ± 1.33 mL/min/kg
f e (fraction excreted in urine unchanged) [2, 5]: 1.24 ± 0.160%
Vdβ [2, 6]: 52.0 ± 10.0 L/kg and 52.0 ± 10.5 L/kg
CLhepatic [2, 6]: 8 ± 151.33 mL/min/kg and 8 ± 1.33 mL/min/kg
α-Glucosidase inhibition (in words) [3]: does not appear to exhibit greater inhibition at higher concentrations
